Test results published in US20150111852A1, “1-Di(sec-butyl)-phosphinoyl-pentane (dapa-2-5) as a topical agent” (priority 2013, published 2015).

Columns and labels:
mouth and throat = experiment: Sensory activity of ODT-C on volunteers (double-blind, modified ASHRAE scale); format: in vivo, human; details: doses higher than 1.5 mg
[1] = system: isolated TRPM8 knock-out mouse vagus; experiment: Capsaicin-induced depolarization of isolated vagus nerve, TRPM8 knock-out; details: 1 mg/mL, capsaicin 1 μM, TRPM8 KO, read-out: per cent inhibition of capsaicin-induced depolarization
Experimental: (§1) To examine the ability of DAPA-2-5 to suppress sensory discomfort, it was tested in an animal model developed at the Imperial College, London, U.K. [Birrell et al. TRPA1 agonists evoke coughing in guinea pig and human volunteers. Amer. J. Respiratory and Critical Care Medicine 180, 1042-7, 2009; Patel et al., Inhibition of guinea-pig and human sensory nerve activity and the cough reflex in guinea-pigs by cannabinoid (CB2) receptor activation. British J. Pharmacol. 140, 261-8 2003]. In this in vitro assay, segments of the vagus nerve are placed on a platform and the electrical activity is recorded after topical application of capsaicin. Capsaicin is a known irritant that elicits pain when it is applied to the skin and it will depolarize the isolated vagus. The ability of substances to inhibit this capsaicin-induced depolarization is measured.
(§2) Briefly, segments of vagus nerve, caudal to the nodose ganglion, were removed from mice with fine forceps and segments placed in oxygenated Krebs solution and bubbled with 95% O2/5% CO2. The desheathed nerve trunk was mounted in a ‘grease-gap’ recording chamber and constantly superfused with Krebs solution with a flow rate of approximately 2 mL/min, and the electrical activity of the nerve monitored with electrodes. The temperature of the perfusate was kept constant at 37° C. by a water bath. […]

[2] = system: isolated normal mouse vagus; experiment: Capsaicin-induced depolarization of isolated vagus nerve, wild type
Experimental: as §1, §2

With CCCCCP(=O)(C(C)CC)C(C)CC (stereo not shown) [DAPA-2-5, 1-Di(sec-butyl)-phosphinoyl-pentane] the “ODT-C test results at higher doses” value (mouth and throat) was “higher than 1.5 mg “penetrating cold” sensations”, the inhibition at 1000 µg/mL [1] was ~0% and the “depolarization evoked by the compound itself” value [2] was “did not evoke depolarization”. It also gave an inhibition at 1000 µg/mL ([2]; Mus musculus, 10 min, 1 mg/mL for 10 min, capsaicin 1 μM, read-out: per cent inhibition of capsaicin-induced depolarization) of ~60%.
